The term EC50 denotes the concentration at which the effect is half-maximal.

In patent US9920010B2, “CXCR7 receptor modulators” (IDORSIA PHARMACEUTICALS LTD, priority 2013, dated 2018) one finds EC50 data, which are given here for 34 compounds.

This assay addresses T1, CXCR7 (Homo sapiens, UniProt P25106).
T1 construct: host or cells: CHO-K1 (PathHunter CHO-K1 CXCR7 b-arrestin cell line, stably transfected)
Description: PathHunter CHO-K1 CXCR7 b-arrestin recruitment assay (CXCR7 agonistic activity). In kind it is cell-based. The note with it: PathHunter CHO-K1 CXCR7 b-arrestin cell line. Summed up:
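Stable CHO-K1 line with C-terminally ProLink-tagged CXCR7 and β-arrestin 2–EA fusion; β-arrestin recruitment restores β-gal activity, read by chemiluminescence after 1 h RT detection. Cells seeded 24 h, starved in OPTIMEM 3–4 h, exposed to compounds 90 min at 37 °C in HBSS/HEPES/BSA. Geometric-mean EC50 from repeated measurements.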
For orientation: Activated receptors often draw arrestin, which recruitment assays turn into a signal.

T1 sequence (P25106 whole entry): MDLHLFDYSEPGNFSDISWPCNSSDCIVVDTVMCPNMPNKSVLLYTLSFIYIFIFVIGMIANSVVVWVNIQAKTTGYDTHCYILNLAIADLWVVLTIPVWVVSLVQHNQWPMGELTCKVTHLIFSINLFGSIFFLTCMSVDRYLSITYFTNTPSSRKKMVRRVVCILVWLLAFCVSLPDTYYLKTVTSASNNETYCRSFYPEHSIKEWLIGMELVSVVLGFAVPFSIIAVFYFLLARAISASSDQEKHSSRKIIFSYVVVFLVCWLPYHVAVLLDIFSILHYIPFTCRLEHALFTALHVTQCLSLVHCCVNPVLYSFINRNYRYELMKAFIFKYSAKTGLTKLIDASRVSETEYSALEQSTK
T1 sequence (P32121 whole entry partner): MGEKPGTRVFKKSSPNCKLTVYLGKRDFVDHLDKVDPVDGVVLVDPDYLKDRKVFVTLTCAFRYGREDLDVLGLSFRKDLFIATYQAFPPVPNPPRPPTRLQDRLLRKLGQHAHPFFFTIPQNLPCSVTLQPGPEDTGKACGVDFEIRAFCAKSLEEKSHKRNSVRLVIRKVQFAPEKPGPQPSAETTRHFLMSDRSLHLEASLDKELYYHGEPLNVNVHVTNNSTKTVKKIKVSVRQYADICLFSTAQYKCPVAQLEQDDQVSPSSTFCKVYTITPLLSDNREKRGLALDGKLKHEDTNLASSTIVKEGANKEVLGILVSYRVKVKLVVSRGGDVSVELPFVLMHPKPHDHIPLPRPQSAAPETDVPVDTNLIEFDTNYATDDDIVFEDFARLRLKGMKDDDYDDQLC

`C/C(=C\c1ccccc1)CN(CCN(C)C)C(=O)CNc1cccc2c1CCN(CC1CC1)C2` [Example 45, 2-(2-Cyclopropylmethyl-1,2,3,4-tetrahydro-isoquinolin-5-ylamino)-N-(2-dimethylamino-ethyl)-N-((E)-2-methyl-3-phenyl-allyl)-acetamide] yielded an EC50 of 0.008 µM. That is a single-digit nanomolar value. Compound `CCN1CCc2c(cccc2NCC(=O)N(CCN(C)C)Cc2ccccc2)C1` [compound 107, N-Benzyl-N-(2-dimethylamino-ethyl)-2-(2-ethyl-1,2,3,4-tetrahydro-isoquinolin-5-ylamino)-acetamide] showed a concentration giving a half-maximal response (EC50) of 0.043 µM.

On to `CN(C)CCN(Cc1ccccc1)C(=O)CNc1cccc2c1CCN(C(=O)Oc1ccccc1)C2` [compound 130], for which the EC50 was 0.39 µM. This EC50 is about 9.1-fold higher than that of the compound before. The figure for `CN(C)CCN(Cc1ccccc1)C(=O)CNc1cccc2c1CN(CC1CCCCC1)CC2` [compound 194, N-Benzyl-2-(2-cyclohexylmethyl-1,2,3,4-tetrahydro-isoquinolin-8-ylamino)-N-(2-dimethylamino-ethyl)-acetamide] is 0.013 µM; for `CC(C)(O)CN(Cc1ncccc1Cl)C(=O)CNc1cccc2c1CCN(CC1CC1)C2` [Example 251, N-(3-Chloro-pyridin-2-ylmethyl)-2-(2-cyclopropylmethyl-1,2,3,4-tetrahydro-isoquinolin-5-ylamino)-N-(2-hydroxy-2-methyl-propyl)-acetamide] it is 0.024 µM.

`CCN1CCc2cccc(NCC(=O)N(CCN(C)C)Cc3ccccc3F)c2C1` [compound 491, N-(2-Dimethylamino-ethyl)-2-(2-ethyl-1,2,3,4-tetrahydro-isoquinolin-8-ylamino)-N-(2-fluoro-benzyl)-acetamide] came in with a concentration for a half-maximal effect (EC50) of 0.021 µM. `O=C(CNc1cccc2c1CCN(CC1CC1)C2)N(CCN1CCC(F)(F)CC1)Cc1ncccc1C(F)(F)F` [Example 279, 2-(2-Cyclopropylmethyl-1,2,3,4-tetrahydro-isoquinolin-5-ylamino)-N-[2-(4,4-difluoro-piperidin-1-yl)-ethyl]-N-(3-trifluoromethyl-pyridin-2-ylmethyl)-acetamide]: the EC50 was found to be 0.008 µM.

Turning to `CCOC(=O)N1CCc2c(cccc2NCC(=O)N(CCNC)Cc2ncccc2C(F)(F)F)C1` [compound 420, 5-({[(2-Methylamino-ethyl)-(3-trifluoromethyl-pyridin-2-ylmethyl)-carbamoyl]-methyl}-amino)-3,4-dihydro-1H-isoquinoline-2-carboxylic acid ethyl ester], the EC50 was determined as 0.021 µM. Compared with the last compound, the EC50 is about 2.6-fold higher. In turn, `CCN1CCc2cccc(OCC(=O)N(CCN(C)C)Cc3ccccc3C(F)(F)F)c2C1` [compound 567, N-(2-Dimethylamino-ethyl)-2-(2-ethyl-1,2,3,4-tetrahydro-isoquinolin-8-yloxy)-N-(2-trifluoromethyl-benzyl)-acetamide] displayed an EC50 of 0.004 µM. `O=C(CNc1cccc2c1CCN(CC1CC1)C2)N(CCN1CCC(F)(F)C1)Cc1ccccc1C(F)(F)F` [Example 282, 2-(2-Cyclopropylmethyl-1,2,3,4-tetrahydro-isoquinolin-5-ylamino)-N-[2-(3,3-difluoro-pyrrolidin-1-yl)-ethyl]-N-(2-trifluoromethyl-benzyl)-acetamide] showed a half-maximal effective concentration (EC50) of 0.047 µM. In the case of `CC(O)CN(Cc1ccccc1C(F)(F)F)C(=O)CNc1cccc2c1CCN(CC1CC1)C2` (racemic) [Example 240, rac-2-(2-Cyclopropylmethyl-1,2,3,4-tetrahydro-isoquinolin-5-ylamino)-N-(2-hydroxy-propyl)-N-(2-trifluoromethyl-benzyl)-acetamide] it was 0.015 µM. In turn, `CC(C)N(CCN(Cc1ccccc1C(F)(F)F)C(=O)CNc1cccc2c1CCN(CC1CC1)C2)C(C)C` [Example 219, 2-(2-Cyclopropylmethyl-1,2,3,4-tetrahydro-isoquinolin-5-ylamino)-N-(2-diisopropylamino-ethyl)-N-(2-trifluoromethyl-benzyl)-acetamide] registered an EC50 of 0.003 µM. `C/C(=C\c1cccc2c1CCN(CC1CC1)C2)C(=O)N(CCN(C)C)Cc1ccccc1C(F)(F)F` [compound 154, (E)-3-(2-Cyclopropylmethyl-1,2,3,4-tetrahydro-isoquinolin-5-yl)-N-(2-dimethylamino-ethyl)-2-methyl-N-(2-trifluoromethyl-benzyl)-acrylamide] showed an EC50 of 0.029 µM. This EC50 is about 9.7-fold higher than that of the compound before.

Compound `COC(=O)N1CCc2cccc(OCC(=O)N(CCN(C)C)Cc3ccccc3)c2C1` [Example 204, 8-{[Benzyl-(2-dimethylamino-ethyl)-carbamoyl]-methoxy}-3,4-dihydro-1H-isoquinoline-2-carboxylic acid methyl ester] displayed an EC50 of 0.04 µM. This EC50 and that of the compound before are within 1.5-fold of each other. `COCCN1CCc2c(cccc2NCC(=O)N(CCN(C)C)Cc2ncccc2Cl)C1` [Example 306, N-(3-Chloro-pyridin-2-ylmethyl)-N-(2-dimethylamino-ethyl)-2-[2-(2-methoxy-ethyl)-1,2,3,4-tetrahydro-isoquinolin-5-ylamino]-acetamide] returned an EC50 of 0.039 µM.

Turning to `CN(C)CCN(Cc1ccccc1F)C(=O)CNc1cccc2c1CCN(CC1CC1)C2` [Example 38, 2-(2-Cyclopropylmethyl-1,2,3,4-tetrahydro-isoquinolin-5-ylamino)-N-(2-dimethylamino-ethyl)-N-(2-fluoro-benzyl)-acetamide], a half-maximal effect (EC50) was put at 0.003 µM.

In turn, `N#CCCN(Cc1ccccc1)C(=O)CNc1cccc2c1CCN(CC1CC1)C2` [Example 67, N-Benzyl-N-(2-cyano-ethyl)-2-(2-cyclopropylmethyl-1,2,3,4-tetrahydro-isoquinolin-5-ylamino)-acetamide] returned an EC50 of 0.115 µM. This EC50 is about 38-fold higher than that of the compound before. On to `CN(C)CCN(Cc1ccccc1C(F)(F)F)C(=O)CNc1cccc2c1CCN(C(=O)C(C)(F)F)C2` [Example 362, 2-[2-(2,2-Difluoro-propionyl)-1,2,3,4-tetrahydro-isoquinolin-5-ylamino]-N-(2-dimethylamino-ethyl)-N-(2-trifluoromethyl-benzyl)-acetamide], for which the EC50 amounted to 0.021 µM. `CC(C)(O)CN(Cc1ncccc1Br)C(=O)CNc1cccc2c1CN(CC1CC1)CC2` [compound 488] registered an EC50 of 0.091 µM. `CCC(=O)N1CCc2c(cccc2NCC(=O)N(CCN(C)C)Cc2ccc(C)cc2)C1` [Example 16, N-(2-Dimethylamino-ethyl)-N-(4-methyl-benzyl)-2-(2-propionyl-1,2,3,4-tetrahydro-isoquinolin-5-ylamino)-acetamide] registered an EC50 of 0.063 µM. On to `O=C(CNc1cccc2c1CN(CC1CC1)CC2)N(CCN1CC(F)(F)C1)Cc1ccccc1C(F)(F)F` [compound 484], for which a half-maximal effect (EC50) was put at 0.079 µM. As for `COCCN1CCc2c(cccc2NCC(=O)N(Cc2ccccc2C(F)(F)F)CC(O)COC)C1` (stereo not shown) [Example 299, N-(2-Hydroxy-3-methoxy-propyl)-2-[2-(2-methoxy-ethyl)-1,2,3,4-tetrahydro-isoquinolin-5-ylamino]-N-(2-trifluoromethyl-benzyl)-acetamide], the EC50 turned out to be 0.291 µM. Compound `C=CCN1CCc2cccc(NCC(=O)N(CCN(C)CCF)Cc3ccccc3C(F)(F)F)c2C1` [compound 465, 2-(2-Allyl-1,2,3,4-tetrahydro-isoquinolin-8-ylamino)-N-{2-[(2-fluoro-ethyl)-methyl-amino]-ethyl}-N-(2-trifluoromethyl-benzyl)-acetamide] came in with an EC50 of 0.039 µM. On to `Cc1cccc(CN(CCN(C)C)C(=O)CNc2cccc3c2CCN(CC2CC2)C3)n1` [Example 259, 2-(2-Cyclopropylmethyl-1,2,3,4-tetrahydro-isoquinolin-5-ylamino)-N-(2-dimethylamino-ethyl)-N-(6-methyl-pyridin-2-ylmethyl)-acetamide], for which it took 0.005 µM to reach a half-maximal effect (EC50). `CCN1CCc2cccc(NCC(=O)N(CCC3CCCN3C)Cc3ccccc3)c2C1` (racemic) [compound 508] had an EC50 of 0.034 µM. The compound `O=C(CNc1cccc2c1CCN(CC1CC1)C2)N(Cc1ccccc1C(F)(F)F)C1CCNC1` (racemic) [compound 381] yielded an EC50 of 0.009 µM. Compared with the last compound, the EC50 is about 3.8-fold lower. The compound `CCN1CCc2cccc(NCC(=O)N(CCN(C)C)Cc3ccc(Cl)cc3)c2C1` [compound 502] registered an EC50 of 0.113 µM. `CN(C)CCN(Cc1ccccc1)C(=O)CNc1cccc2c1CCN(C(=O)c1ccccc1)C2` [compound 125] had an EC50 of 0.24 µM. In turn, `O=C(CNc1cccc2c1CCN(CC1CC1)C2)N(CCN1CCCC1)Cc1ccccc1` [Example 41, N-Benzyl-2-(2-cyclopropylmethyl-1,2,3,4-tetrahydro-isoquinolin-5-ylamino)-N-(2-pyrrolidin-1-yl-ethyl)-acetamide] gave an EC50 of 0.005 µM. In the case of `O=C(CNc1cccc2c1CCN(CC1CC1)C2)N(CCN1CCC(F)(F)C1)Cc1ncccc1C(F)(F)F` [Example 284, 2-(2-Cyclopropylmethyl-1,2,3,4-tetrahydro-isoquinolin-5-ylamino)-N-[2-(3,3-difluoro-pyrrolidin-1-yl)-ethyl]-N-(3-trifluoromethyl-pyridin-2-ylmethyl)-acetamide] it was 0.018 µM. Turning to `CN(C)CCN(Cc1ncccc1C(F)(F)F)C(=O)CNc1cccc2c1CCN(CC1CC1)C2` [Example 47, 2-(2-Cyclopropylmethyl-1,2,3,4-tetrahydro-isoquinolin-5-ylamino)-N-(2-dimethylamino-ethyl)-N-(3-trifluoromethyl-pyridin-2-ylmethyl)-acetamide], a half-maximal response (EC50) required 0.002 µM. As to `O=C(/C=C/c1cccc2c1CCN(CC1CC1)C2)N(CCN1CCC(F)(F)CC1)Cc1ncccc1Cl` [Example 334, (E)-N-(3-Chloro-pyridin-2-ylmethyl)-3-(2-cyclopropylmethyl-1,2,3,4-tetrahydro-isoquinolin-5-yl)-N-[2-(4,4-difluoro-piperidin-1-yl)-ethyl]-acrylamide], it took 0.013 µM to reach a half-maximal effect (EC50).

As for `CCN1CCc2cccc(NCC(=O)N(CCN(C)C)Cc3cc(C)on3)c2C1` [compound 535], the EC50 was determined as 0.355 µM. In the case of `CCN1CCc2cccc(NCC(=O)N(CCN(C)C)Cc3nc(C)cs3)c2C1` [compound 536] it was 0.092 µM.
